# Measured values reported in US20110262442A1, “COMPOSITIONS FOR TREATING CNS DISORDERS” (Adenios, Inc., priority 2009, published 2011).
# Assays:
# Z310 cells = experiment: Jurkat cell migration across Z310-seeded Transwell (choroid plexus); type: cell-based, murine; conditions: Z310 cells on Transwell, migrated cells counted after 24 hours, n=1
# Procedure: The choroid plexus (“CP”) controls lymphocyte migration into the CNS. The CP expresses the A1 and A2A adenosine receptors. EAE is prevented in mice when A2A adenosine receptor activity is blocked. EAE is enhanced when the A1 adenosine receptor is missing. It was hypothesized that A2A adenosine receptor activation promotes lymphocyte migration across the CP. Z310 cells are a murine choroid plexus cell line. To test the hypothesis, Transwell membranes were seeded with Z310 cells and allowed to grow to confluencey. 2×10^6 Jurkat cells were added to the upper chamber with or with out NECA (n=1, general AR agonist), CCPA (n=1, AAR agonist), CGS 21860 (n=1, A2AAR agonist), or DMSO vehicle (n=1). After 24 hours, migrated cells in the lower chamber were counted. Values are relative to the number of cells that migrate through non-Z310 seeded transwells and the results are shown in FIG. 12.
# hCMEC/D3 cells = experiment: cAMP levels in human brain endothelial cells (cAMP Screen kit); type: cell-based; conditions: 15 minutes treatment, various concentrations (CCPA: at high levels)
# Procedure: Adenosine receptor activation regulates cAMP levels in cells. In order to determine the sensitivity of human brain endothelial cells to adenosine receptor induced cAMP regulation, human brain endothelial cells were cultured with adenosine receptor agonists at various concentrations, followed by cAMP level analysis, as shown in FIG. 13.
# HCMECD3 cells were grown to confluencey on 24 well plates. As adenosine receptor (“AR”) stimulation is known to influence cAMP levels, cells were treated with or without various concentrations of NECA (general AR agonist), CCPA (A1 AR agonist), CGS 21860 (A2A AR agonist), DMSO vehicle, or Forksolin (induces cAMP). After 15 minutes, lysis buffer was added and the cells were frozen at −80 C to stop the reaction. Duplicate samples were used for each condition. cAMP levels were assayed using a cAMP Screen kit (Applied Biosystems, Foster City, Calif.).
# blood brain barrier [1] = experiment: Fluorimetric analysis of labeled dextrans in brain after i.v. drug administration; type: in vivo, mice
# Procedure: C57BL/6 mice from Jackson Laboratories were used as wild types. All mice used were aged 7-9 weeks and weighed between 20-25 g. All rats were aged 8 weeks and weighed 200-220 g. Mice and rats were bred and housed under specific pathogen-free conditions.
# The adenosine receptor agonists NECA, CCPA and CGS 21860 were purchased from Tocris. Each was dissolved in DMSO then diluted in PBS to the desired concentration; in most cases final DMSO concentrations were <0.5% (vol/vol). For vehicle controls, DMSO was diluted in PBS to the same concentration. Dehydrated dextrans labeled with either FITC or Texas Red were purchased from Invitrogen and re-suspended in PBS to 10 mg ml^−1. All experiments involving dextran injection used 0.5 mg dextran in PBS. In experiments where drug and dextran were injected concomitantly, 0.5 mg of dextran was mixed with the drug to the desired concentration in a final volume of 200 μl. All injections were retro-orbital i.v. with a 27-gauge needle. In the SCH 58261 experiment, groups were administered vehicle or SCH 58261 for 4 d. Vehicle/drug and dextrans were injected on day 5 and tissues were collected 3 h after vehicle/drug administration. In Lexiscan experiments, Lexiscan was administered i.v. with 3 injections, 5 min apart and tissues were collected at 15 min unless otherwise indicated.
# In dose-response experiments and experiments with the A1 AR and A2A AR knock-out mice, drugs and dextrans were injected concomitantly. After 3 h, the mice were anesthetized with ketamine/xylazine and subjected to a nose cone containing isoflurane. They were perfused with 25-50 ml ice-cold PBS through the left ventricle of the heart then decapitated. Their brains were removed, weighed and frozen for later analysis.
# Ice-cold 50 mM Tris-Cl (pH 7.6) was added to frozen brains (100 μl per 100 mg brain) and were to thawed on ice. They were homogenized manually with ˜45 strokes of a dounce homogenizer in plastic 1.5 ml microfuge tubes then spun at 16.1 g in a microfuge for 30 min at room temperature (rt). The supernatants were transferred to new tubes and an equal volume absolute methanol was added. The samples were spun again at 16.1 g for 30 min at rt. Supernatant (200 μl) was transferred to a Corning costar 96 well black polystyrene assay plate (clear bottom). Additionally, a series of standards containing 0.001-10 μg ml^−1 dextran in 50% Tris-Cl/50% absolute methanol (vol/vol) was added to each plate. Absolute concentrations of dextrans were derived from these standard curves. Fluorimetric analysis was performed on a BioTek Synergy 4. FITC-dextran was detected at 488/519 (excitation/emission) and Texas Red-dextran was detected at 592/618.
# blood brain barrier [2] = experiment: Evans Blue dye extravasation across the blood brain barrier in mice immunized for EAE; type: in vivo; conditions: WT EAE mice; 100 μl 0.01 nM on day 1, 3, 5, 7, 9; dye on day 10
# Procedure: In order to determine if activation of adenosine receptors would induce extravazation of Evans Blue dye across the blood brain barrier (BBB), mice were first treated on day one with NECA, a non-selective adenosine receptor agonist (n=2, 100 μl 0.01 nM); and, PBS as a vehicle control (n=2, 100 μl). On day 2 mice were then immunized with CFA-MOG35-55 and pertussis to induce EAE. Then NECA or PBS was administered every other day on day 3, day 5, day 7 and day 9. On day 10, mice were injected intravenously with 200 μl 1% Evans Blue dye ([…] total dye injected). Six hours after administration of Evans Blue, mice were anesthetized with a ketamine/xylazine mix and perfused via the left ventricle with ice cold PBS. Brains were harvested and homogenized in n,n-dimethylformamide (DMF) at 5 μl/mg (v:w). Tissue was incubated for 72 hours at room temperature in DMF to extract the dye. Following extraction, the tissue/solvent mixture was centrifuged at 500×g for 30 minutes and 100 μl of supernatant was read on a BioTex spectrophotometer at 620 nm.
# [3] = WT mice, 3 h after i.v. administration
compound,measurement,setting,value
"CCNC(=O)[C@H]1O[C@@H](n2cnc3c(N)ncnc32)[C@H](O)[C@@H]1O [NECA, 5′-N-ethylcarboxamidoadenosine]",lymphocyte (Jurkat) migration across the CP,Z310 cells,induced migration
same,cAMP levels,hCMEC/D3 cells,increased cAMP levels
same,"levels of i.v.-administered 10,000 Da dextrans in brain compared to wild type mice","blood brain barrier [1]; A1−/− mice, 3 h after i.v. administration",significantly lower levels
same,"levels of i.v.-administered 10,000 Da dextrans in brain compared to wild type mice","blood brain barrier [1]; A2A−/− mice, 3 h after i.v. administration",significantly lower levels
same,time of maximum entry of labeled dextran into the CNS post-treatment,"blood brain barrier [1]; WT mice, 10,000 Da FITC-dextran co-administered with drug at T0",4 to 6 h
same,"CNS entry of 10,000 Da dextrans compared to vehicle",blood brain barrier [1]; [3],dose-dependent increase
same,"CNS entry of 70,000 Da dextrans compared to vehicle",blood brain barrier [1]; [3],dose-dependent increase
same,time post-treatment by which dextran levels returned to baseline,"blood brain barrier [1]; WT mice, Texas Red-dextran injected after drug, 19.5 h collection time",≤ 18 h
same,detectable levels of dextran in the brain at 8 h post-treatment,"blood brain barrier [1]; WT mice, Texas Red-dextran injected at indicated time after drug, 9.5 h collection time",decreased from the maximum
same,dose giving maximum entry of dextrans into the CNS,"blood brain barrier [1]; WT mice, i.v., 100 μl of 25 μM",0.80 µg
same,BBB permeability (Evans Blue dye) over PBS control EAE mice,blood brain barrier [2],increase in BBB permeability
